Measured values from patent US20150315188A1, “COMPOUNDS AND METHODS FOR TREATMENT OF HYPERTENSION” (MEDIVATION TECHNOLOGIES, INC., priority 2012, published 2015).

Columns and labels:
Set-up in all cases: purchased Milipore (Millipore)
[1] = molecular target: T1, Human adrenergic α2B receptor (Homo sapiens, UniProt P18089); test: Radioligand binding, adrenergic α2B (Protocol Group B); conditions: Protocol Group B; for Percentage inhibition of ligand binding, Adrenergic α2B (10 nM) / inhibition at 0.01 µM: 10 nM compound; for Percentage inhibition of ligand binding, Adrenergic α2B (10 nM): 0.01 µM; for Percentage inhibition of ligand binding, Adrenergic α2B (30 nM) / inhibition at 0.03 µM: 30 nM compound; for Percentage inhibition of ligand binding, Adrenergic α2B (30 nM): 0.03 µM; for Percentage inhibition of ligand binding, Adrenergic α2B (0.1 μM) / inhibition at 0.1 µM: 0.1 μM compound; for inhibition at 0.01 µM: read-out: Percentage inhibition of ligand binding, Adrenergic α2B (10 nM); for inhibition at 0.03 µM: read-out: Percentage inhibition of ligand binding, Adrenergic α2B (30 nM); for inhibition at 0.1 µM: read-out: Percentage inhibition of ligand binding, Adrenergic α2B (0.1 μM)
T1 sequence (P18089 1-450): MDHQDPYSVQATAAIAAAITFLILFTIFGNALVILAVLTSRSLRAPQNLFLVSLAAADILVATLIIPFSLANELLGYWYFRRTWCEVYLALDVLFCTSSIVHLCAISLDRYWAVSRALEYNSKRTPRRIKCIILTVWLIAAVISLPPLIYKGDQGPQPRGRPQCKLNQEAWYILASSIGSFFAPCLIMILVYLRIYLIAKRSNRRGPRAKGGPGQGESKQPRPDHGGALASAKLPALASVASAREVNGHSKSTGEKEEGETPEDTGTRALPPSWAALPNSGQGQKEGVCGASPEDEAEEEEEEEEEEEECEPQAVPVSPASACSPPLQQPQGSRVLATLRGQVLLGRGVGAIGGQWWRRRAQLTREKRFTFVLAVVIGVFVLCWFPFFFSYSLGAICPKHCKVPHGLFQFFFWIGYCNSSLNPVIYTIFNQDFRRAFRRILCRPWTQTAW
Outline: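 Recombinant human α2B receptor membranes incubated with compounds in 50 mM Tris-HCl pH 7.4, 5 mM MgCl2, 1 mM CaCl2, 0.2% BSA, 1% DMSO vehicle. Non-specific binding defined with 10 μM rauwolscine. Values are percent inhibition of specific binding or estimated Ki.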

[2] = molecular target: T2, Human adrenergic α2A receptor (Homo sapiens, UniProt P08913); test: Radioligand binding, adrenergic α2A (Protocol Group B); conditions: Protocol Group B; for Percentage inhibition of ligand binding, Adrenergic α2A (0.1 μM) / inhibition at 0.1 µM: 0.1 μM compound; for Percentage inhibition of ligand binding, Adrenergic α2A (0.3 μM) / inhibition at 0.3 µM: 0.3 μM compound; for inhibition at 0.1 µM: read-out: Percentage inhibition of ligand binding, Adrenergic α2A (0.1 μM); for inhibition at 0.3 µM: read-out: Percentage inhibition of ligand binding, Adrenergic α2A (0.3 μM)
T2 sequence (P08913 1-465): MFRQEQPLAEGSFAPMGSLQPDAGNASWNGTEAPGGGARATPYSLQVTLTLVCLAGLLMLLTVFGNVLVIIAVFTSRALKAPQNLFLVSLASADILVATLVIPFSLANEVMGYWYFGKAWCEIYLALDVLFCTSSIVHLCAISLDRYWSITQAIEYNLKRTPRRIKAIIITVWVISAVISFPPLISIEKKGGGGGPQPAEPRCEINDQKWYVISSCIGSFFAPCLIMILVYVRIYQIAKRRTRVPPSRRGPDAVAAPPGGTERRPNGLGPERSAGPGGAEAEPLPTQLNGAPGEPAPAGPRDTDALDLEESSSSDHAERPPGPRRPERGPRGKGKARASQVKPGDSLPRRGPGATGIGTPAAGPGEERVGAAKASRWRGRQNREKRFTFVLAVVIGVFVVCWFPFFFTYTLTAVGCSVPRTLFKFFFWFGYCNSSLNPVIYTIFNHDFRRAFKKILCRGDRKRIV
Outline: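 Membranes from recombinant cells expressing the receptor, in 50 mM Tris-HCl pH 7.4 with 5 mM MgCl2, 1 mM CaCl2, 0.2% BSA; compounds incubated with 2 nM [^3H]MK-912 for 60 min at 25° C. Nonspecific binding defined by 10 μM rauwolscine; filtration, counting; percent inhibition of specific binding, or estimated Ki.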

[3] = molecular target: T3, Human adrenergic α1B receptor (Homo sapiens, UniProt P35368); test: Radioligand binding, adrenergic α1B (Protocol Group B); conditions: Protocol Group B; for Percentage inhibition of ligand binding, Adrenergic α1B (0.1 μM) / inhibition at 0.1 µM: 0.1 μM compound; for Percentage inhibition of ligand binding, Adrenergic α1B (0.3 μM) / inhibition at 0.3 µM: 0.3 μM compound; for inhibition at 0.1 µM: read-out: Percentage inhibition of ligand binding, Adrenergic α1B (0.1 μM); for inhibition at 0.3 µM: read-out: Percentage inhibition of ligand binding, Adrenergic α1B (0.3 μM)
T3 sequence (P35368 1-520): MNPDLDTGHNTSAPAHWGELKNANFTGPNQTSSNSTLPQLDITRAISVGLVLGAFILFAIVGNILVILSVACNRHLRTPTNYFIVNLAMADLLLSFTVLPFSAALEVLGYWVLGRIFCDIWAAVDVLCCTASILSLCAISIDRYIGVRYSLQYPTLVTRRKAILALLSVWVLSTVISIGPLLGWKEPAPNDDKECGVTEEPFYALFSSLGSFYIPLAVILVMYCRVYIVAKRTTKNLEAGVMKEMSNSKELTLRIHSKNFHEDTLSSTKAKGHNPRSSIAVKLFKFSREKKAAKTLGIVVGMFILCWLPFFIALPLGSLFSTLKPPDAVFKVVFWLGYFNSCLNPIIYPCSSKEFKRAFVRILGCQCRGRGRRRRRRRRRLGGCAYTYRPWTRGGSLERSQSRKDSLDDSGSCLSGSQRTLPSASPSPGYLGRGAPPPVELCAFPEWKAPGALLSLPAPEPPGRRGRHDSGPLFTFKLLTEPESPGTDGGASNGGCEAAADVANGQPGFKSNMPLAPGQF
Outline: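 Recombinant human α1B membranes incubated with test compound and 0.3 nM [3H]prazosin, 60 min at 25 °C, in 50 mM Tris-HCl pH 7.4, 10 mM MgCl2, 1 mM EDTA; nonspecific binding with 10 μM prazosin. Filter-bound radioactivity counted; values are % inhibition of specific binding or estimated Ki.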

Row | Percentage inhibition of ligand binding, Adrenergic α2B (10 nM) [1] [%] | Percentage inhibition of ligand binding, Adrenergic α2B (30 nM) [1] [%] | Percentage inhibition of ligand binding, Adrenergic α2B (0.1 μM) [1] [%] | Percentage inhibition of ligand binding, Adrenergic α2A (0.1 μM) [2] [%] | Percentage inhibition of ligand binding, Adrenergic α2A (0.3 μM) [2] [%] | Percentage inhibition of ligand binding, Adrenergic α1B (0.1 μM) [3] [%] | Percentage inhibition of ligand binding, Adrenergic α1B (0.3 μM) [3] [%] | inhibition at 0.01 µM [1] [%] | inhibition at 0.03 µM [1] [%] | inhibition at 0.1 µM [1] [%] | inhibition at 0.1 µM [2] [%] | inhibition at 0.3 µM [2] [%] | inhibition at 0.1 µM [3] [%] | inhibition at 0.3 µM [3] [%] | SMILES
1 | 12 | 32 | 62 | 16 | 26 | 2 | 21 | – | – | – | – | – | – | – | Cc1cc(F)c2c(c1)c1c(n2CC(C)(O)c2ccncc2)CC2CCCN2C1 (single isomer, unassigned) [62b]
2 | 4 | 7 | 23 | −3 | 9 | 18 | 52 | – | – | – | – | – | – | – | Cc1ccc2c(c1)c1c(n2CC(O)c2ccccn2)CC2CCCN2C1 (single isomer, unassigned) [45b]
3 | – | −12 | −11 | −9 | −5 | −2 | −10 | 21 | – | – | – | – | – | – | Cc1ccc2c(c1)c1c(n2CC(O)c2ccncc2)CNC2CCCC12 (single isomer, unassigned) [34a]
4 | – | 1 | – | 1 | – | 1 | – | – | – | – | – | – | – | – | OC(Cn1c2c(c3cc(F)cc(F)c31)C1CCCN1CC2)c1ccncc1 (single isomer, unassigned) [144d]
5 | – | – | 1 | −6 | 1 | −1 | 27 | 9 | 6 | – | – | – | – | – | CC(O)(Cn1c2c(c3cc(Cl)cc(F)c31)C1CCCN1CC2)c1ccncc1 (single isomer, unassigned) [52d]
6 | – | – | – | – | – | – | – | 13 | 8 | 12 | -18 | -5 | 0 | 17 | Cc1ccc2c(c1)c1c(n2CC(O)c2cccnc2)C(F)(F)CN(C)C1 (centres unmarked) [compound 30, 2-(4,4-difluoro-2,8-dimethyl-3,4-dihydro-1H-pyrido[4,3-b]indol-5(2H)-yl)-1-(pyridin-3-yl)ethanol]
7 | – | – | – | – | – | – | – | 17 | 48 | 74 | 1 | 9 | 12 | 38 | Cc1ccc2c(c1)c1c(n2CC(C)(O)c2ccc(OCC3CC3)nc2)CCN(C)C1 (centres unmarked) [compound 56, 2-(6-(cyclopropylmethoxy)pyridin-3-yl)-1-(2,8-dimethyl-3,4-dihydro-1H-pyrido[4,3-b]indol-5(2H)-yl)propan-2-ol]
8 | 1 | −3 | – | 2 | −4 | 1 | 7 | – | – | – | – | – | – | – | Cc1cc(F)cc2c3c(n(CC(C)(O)c4ccncc4)c12)CC1CCCN1C3 (single isomer, unassigned) [78d]
9 | −4 | 16 | 43 | −1 | 12 | 12 | 35 | – | – | – | – | – | – | – | Cc1ccc2c(c1)c1c(n2CC(O)c2ccccn2)CC2CCCN2C1 (single isomer, unassigned) [45a]
10 | −10 | 5 | – | −13 | −12 | −5 | −4 | – | – | – | – | – | – | – | CC(O)(Cn1c2c(c3cc(Cl)cc(F)c31)CN1CCCC1C2)c1cccnc1 (single isomer, unassigned) [63d]
11 | 15 | 6 | 32 | −7 | −2 | −16 | 12 | – | – | – | – | – | – | – | Cc1ccc2c(c1)c1c(n2CC(O)c2ccncc2)CNC2CCCC12 (single isomer, unassigned) [34b]
12 | – | – | – | – | – | – | – | 50 | 65 | 83 | 33 | 50 | 3 | 32 | Cc1ccc2c(c1)c1c(n2CC(C)(O)c2ccc(N)nc2)CCN(C)C1 (centres unmarked) [compound 47, 2-(6-aminopyridin-3-yl)-1-(2,8-dimethyl-3,4-dihydro-1H-pyrido[4,3-b]indol-5(2H)-yl)propan-2-ol]
13 | – | 73 | – | 16 | – | 28 | – | – | – | – | – | – | – | – | OC(Cn1c2c(c3cc(F)cc(F)c31)C1CCCN1CC2)c1ccncc1 (single isomer, unassigned) [144a]
14 | – | – | – | 14 | – | 26 | 34 | 27 | 50 | 69 | – | 21 | – | – | Cc1ccc2c(c1)c1c(n2CC(C)(O)c2ccncc2)CC2CCCN2C1 (single isomer, unassigned) [37a]
15 | −2 | 11 | 30 | −2 | 11 | 14 | 21 | – | – | – | – | – | – | – | Cc1ccc2c(c1)c1c(n2CC(C)(O)c2cccnc2)CC2CCCN2C1 (centres unmarked) [38a]
